# What was measured:
# Format in all cases: cell-based, Human
# [1] = test system: NK-92 cells against K-562 cells; assay: NK-92 cytolytic assay against K-562 tumor target cells (flow cytometry)
# Protocol: Human NK cell line NK-92 was purchased from American Type Culture Collection (ATCC) and cultured in α-MEM Essential Medium (no ribonucleoside and deoxyribonucleoside) supplemented with 0.2 mM Myo-inositol, 0.02 mM Folic Acid, 0.1 mM β-mercaptoethanol, 1% of Non-essential Amino Acids, 1×L-Glutamax, 1% of Penicillin/Streptomycin, 12.5% of heat-inactivated Horse, and 12.5% of heat-inactivated Characterized Fetal Bovine Serum or FBS. The media was supplemented freshly with 200 IU/mL of IL-2 upon cell thawing for one passage and 100 IU/mL of IL-2 for cell expansion. Human tumor cell lines K-562 and Reh were purchased from ATCC and were cultured in RPM11640 Medium supplemented with 1% of Penicillin/Streptomycin and 10% of heat inactivated FBS. HEK293T/17 cells and HCT116 cells were cultured in Dulbecco's Modified Eagle's Medium (DMEM) High Glucose Medium supplemented with 1% of Penicillin/Streptomycin and 10% of FBS. All cell lines were maintained in 5% CO2, 37° C. incubator, except that NK-92 were maintained in 6.5% CO2 incubator at 37° C. All cell lines were maintained below 30 passages and tested regularly for mycoplasma infection using PCR.
# NK-92 anti-tumor cytolysis function was assessed by flow cytometry-based analysis. Tumor target cells K-562 and Reh were labelled with cell tracker CFSE ([…]) or CMRA (5 μM) according to manufacturer's protocol at a maximum of one day before cytolysis experiment. On the experiment day, labelled tumor target cells were washed once with PBS and resuspend to desired cell concentration in complete cell media. NK-92 cells were washed and resuspended in complete media without cytokines to desired cell concentration. NK-92 cells and tumor target cells were plated at various effector: target (E:T) ratios with basal cell numbers at 50,000 cells per well in round-bottom 96-well plate and were co-cultured for 3 hours in 5% CO2, 37° C. incubator. After co-culture, cells were washed once with ice-cold PBS and stained with fixable viability dyes: Aqua (Invitrogen™) or UV Blue (Invitrogen™) or eFluor 780 (eBioscience Invitrogen™) at 1:2000 in dark for 20 mins at 4° C. Stained cells were washed twice with ice cold PBS and were fixed with 1% Paraformaldehyde (PFA) for 1 hour or 2% PFA for 30 mins in dark at 4° C. Flow cytometry sample acquisition was performed with BDO LSRFortessa™ with a UV laser at Flow Cytometry Core Facility, McGill University, and data was analyzed with FlowJo™ 10.7.1 and summarized with Prism™ 9 (GraphPad™). Calculation for % of specific cytolysis was followed by the equation: […]
# [2] = test system: JAK/STAT signaling in NK-92 cells; assay: JAK/STAT signaling Western blot and IL-2 stimulation assay in NK-92
# Protocol: (§1) Total cell lysate was prepared with modified RIPA buffer (1M Tris-HCl (pH 7.5), 5M NaCl, 0.25% sodium deoxycholate, 10% NP-40 and 10 mM sodium fluoride) supplemented with ethylenediaminetetraacetic acid (EDTA)-free protease inhibitor (Roche™) and 2 mM sodium orthovanadate (Sigma-Aldrich™). Protein levels were quantified by bicinchoninic acid (BCA) assay. Protein lysate was separated by 10% SDS-PAGE and Western analysis was performed using primary antibodies listed in the tables below followed with horseradish peroxidase (HRP, 1:10,000, Jackson ImmunoResearch™) conjugated secondary antibodies.
# For cytokine stimulation assay, NK-92 cells were pre-treated with L598 (30 μM) or vehicle control for three days. Before IL-2 stimulation, NK-92 cells were washed once with serum depleted cell media (no IL-2) and were starved for six hours in presence of L598 or vehicle control. After starvation, NK-92 cells were stimulated with IL-2 across a gradient concentration ranging from 0 to 90 IU/mL for 15 mins at 37° C. After incubation, cells were directly lysed with 2× concentrated TNE buffer and then boiled in 1× Laemmli Buffer to prepare cell lysates. Two independent experiments were performed.
# [3] = test system: cord blood isolated NK cells; assay: Surface receptor expression on cord blood NK cells (flow cytometry); conditions: 30 μM, with or without K-562 stimulation E:T 1:1, three hours
# Excerpt: Human cord blood derived NK cells (CB-NK) were kindly provided by Dr. Linda Peltier's Cellular Therapy Laboratory at McGill University Health Center (Montreal, Canada) in frozen format and were stored in liquid nitrogen tank until usage. Briefly, 1×10^7 cells were resuspended in frozen medium consisting of ImmunoCult T Cell Medium supplemented with 10% DMSO final concentration. Frozen CB-NK cells were thawed, and ex vivo expanded at Goodman Cancer Research Center (GCRC) for five days in xeno-free ImmunoCult T cell expansion media supplemented with 10% PlasmaLyte A and freshly with a cytokine cocktail of IL-2 (5 ng/mL), IL-7 (5 ng/mL), IL-15 (5 ng/mL), SCF (15 ng/mL) and FLT3/L (10 ng/mL) every two days. […] On day three, inhibitor L598 and fresh cytokine cocktails were supplemented to the cell media. NK cell population purity and immunophenotype profiling of major activating and inhibitory receptors were assessed upon receiving shipments, after ex vivo expansion for five days and after anti-tumor cytolytic assay.
# NK-92 cells = assay: IFN-γ ELISA of NK-92 supernatants; conditions: 30 μM three days, with or without K-562 (E:T 6:1), vs control
# Protocol: Concentration of secreted IFN-γ in supernatants of NK-92 co-cultured with K-562 cells (E:T at 6:1) or no-stimulation control (K-562 cell media) for four hours was analyzed with Human IFN-γ ELISA Kit (R&D, DIF50) according to the manufacture's protocol. Results were normalized against IFN-γ secreted by K-562 alone treated with NK-92 cell media (no cytokine) for four hours.
# [4] = test system: SMAD2, SOCS1, SOCS3 in NK-92 cells; assay: Western blot of phospho-SMAD2, SOCS1 and SOCS3 in NK-92; conditions: with inhibitor treatment
# Protocol: as §1
substance,measurement,setting,value
7-bromo-6-phosphono(difluoro-methyl)-3-napthalenonitrile [L598],"NK-92 cytolysis against K-562 in presence of TGF-β1, vs vehicle control","[1]; 10 μM with TGF-β 10 ng/mL, IL-2 media, three days",continued exhibiting enhanced anti-tumor cytolysis
same,cytolysis against K-562 after re-treatment,[1]; additional two-days treatment at same concentration,once more improved the anti-tumor cytolysis function to a similar level of the initial treatment
same,tumor cytolysis by NK-92 against K-562 with inhibitor titration,"[1]; dosage increased up to 90 μM, three days, various E:T ratios",gradual increasing of tumor cytolysis
same,enhanced cytolysis against K-562 after inhibitor withdrawal,[1]; withdrawn for three days after initial 30 μM treatment,reversible
same,"sensitivity to low dosage short-term IL-2 stimulation (phospho-STAT1, 3, 4, 5)","[2]; 30 μM three days, starved six hours, IL-2 below 100 IU/mL, 15 mins",more sensitive
same,minimum IL-2 at which increased STAT5 phosphorylation is detectable,[2]; IL-2 stimulation 15 mins after starvation,30 IU/mL
same,total protein expression of STAT members,[2]; IL-2 stimulation assay,might upregulate
same,"phosphorylation of STAT1, STAT3 and STAT4 under TGF-β1 and IL-2",[2]; TGF-β1 and IL-2 stimulation condition,retained enhanced phosphorylation
same,"basal phosphorylation of STAT1, STAT3 and STAT4",[2]; after six-hours serum and cytokine starvation in presence of inhibitor,increased
same,phosphorylation of STAT2 and STAT6,"[2]; regular cell culture, inhibitor titration, three days",relatively stable
same,"phosphorylation of STAT1, STAT3, STAT4 and STAT5","[2]; regular cell culture, inhibitor titration, three days, dosage dependent",increased phosphorylation
same,CD69 and activating receptor expression on cord blood NK cells,[3],upregulation
same,IFN-γ protein secretion,NK-92 cells,significantly more
same,TGF-β1 activated phosphorylation of SMAD2,[4],did not change significantly
same,expression of SOCS1 and SOCS3,[4],did not change
